In patent publication US20240246968A1, “SMALL MOLECULE INHIBITORS OF KRAS G12C MUTANT” (Merck Sharp & Dohme LLC, priority 2021, published 2024):

Assays:
MIA PaCa-2 cells = assay: Growth inhibition activity on KRAS-G12C mutant cell line (MIA PaCa-2), CellTiter-Glo 3D; assay type: cell-based, human; conditions: MIA PaCa-2, 3-day culture with compound
Summary of the method: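 Cells in RPMI1640 with 10% FBS were seeded in U-bottom plates and cultured 1 day at 37 °C, 5% CO2, then exposed to compound (0.2% DMSO final) for 3 more days. Viability read by CellTiter-Glo 3D luminescence; IC50 from growth inhibition relative to untreated wells.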

[1] = target: Gppcp-bound recombinant K-Ras4B G12C mutant protein (amino acids 1-169, C51S/C80L/C118S) (Homo sapiens, UniProt P01116, C118S/C51S/C80L/G12C); assay: KRASG12C binding assay (LC-MS, compound binding rate); conditions: test compound final concentration 0.5 μM, 25° C., 1 hour
Summary of the method: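 Gppcp-bound K-Ras4B G12C (1-169; C51S/C80L/C118S), 50 nM in TBS with 0.1 mM TCEP, 0.25 mM MgCl2, 50 μM Gppcp, exposed to compound at 0.5 μM final for 1 h at 25 °C. Quenched with formic acid and analysed by intact-protein ESI LC-MS. Binding rate is the mono-adduct signal over total KRAS signal; graded A (≥80%) to E (<20%).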

[2] = target: T1, interaction between recombinant K-Ras4B G12C mutant protein and cRAF RAS-binding domain (cRAF-RBD) (Homo sapiens, UniProt P01116, G12C); assay: Inhibitory activity on interaction between KRAS G12C and cRAF (Alpha technology); assay type: biochemical; conditions: GMPPNP-bound KRAS G12C incubated with compound at 25° C. for 1 hour, then cRAF-RBD; Alpha signal
T1 construct: made in house; host or cells: E. coli
Summary of the method: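 GMPPNP-loaded His-tagged KRAS G12C (aa 1-169, E. coli) preincubated with compound 1 h at 25° C in Tris pH 7.5, 100 mM NaCl, 1 mM MgCl2, TCEP, 0.1% Tween 20; cRAF-RBD (aa 50-132) added, 1.5 h RT, Alpha signal read. DMSO = 0%, GDP-bound KRAS = 100% inhibition; IC50 from dose titration fit.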

With C=Cc1cc(C(=O)c2cc(F)c(NC(=O)/C=C/CNC3(C)CC3)c(F)c2)n2cccc(-c3c(OC)cc4c(nc(C)n4C)c3F)c12 (single isomer, unassigned) [Example 111-1, (E)-N-(2,6-difluoro-4-(8-(4-fluoro-6-methoxy-1,2-dimethyl-1H-benzo[d]imidazol-5-yl)-1-vinylindolizine-3-carbonyl)phenyl)-44-((1-methylcyclopropyl)amino)but-2-enamide] the IC50 (MIA PaCa-2 cells) was 46.5 nM, the binding rate [1] was “A (A binding rate of 80% or more is rated “A”)” and the IC50 [2] was 8.71 nM.
C=Cc1cc(C(=O)c2cc(F)c(NC(=O)/C=C/CNC3(C)CC3)c(F)c2)n2cccc(-c3c(OC)cc4c(nc(C)n4C)c3F)c12 (single isomer, unassigned) [Example 111-2, (E)-N-(2,6-difluoro-4-(8-(4-fluoro-6-methoxy-1,2-dimethyl-1H-benzo[d]imidazol-5-yl)-1-vinylindolizine-3-carbonyl)phenyl)-44-((1-methylcyclopropyl)amino)but-2-enamide] was tested, and the IC50 (MIA PaCa-2 cells) was 191 nM, the binding rate [1] was “A (A binding rate of 80% or more is rated “A”)” and the IC50 [2] was 17.4 nM.
For COc1c(-c2cc(F)cn3c(C(=O)c4cc(F)c(NC(=O)/C=C/CNC5(C)CC5)c(F)c4)cnc23)c(C(F)(F)F)cc2c1nc(C)n2C (single isomer, unassigned) [Example 112-2, (E)-N-(2,6-difluoro-4-(6-fluoro-8-(4-methoxy-1,2-dimethyl-6-(trifluoromethyl)-1H-benzo[d]imidazol-5-yl)imidazo[1,2-a]pyridine-3-carbonyl)phenyl)-4-((1-methylcyclopropyl)amino)but-2-enamide], the IC50 (MIA PaCa-2 cells) was 532 nM, the binding rate [1] was “A (A binding rate of 80% or more is rated “A”)” and the IC50 [2] was 362 nM.
For COc1cc2c(cc1-c1cccn3c(C(=O)c4cc(F)c(NC(=O)/C=C/CN[C@H]5CC[C@H](OC)CC5)c(F)c4)ccc13)ncn2C [Example 1, (E)-N-(2,6-difluoro-4-(8-(6-methoxy-1-methyl-1H-benzo[d]imidazol-5-yl)indolizine-3-carbonyl)phenyl)-4-(((1r,4r)-4-methoxycyclohexyl)amino)but-2-enamide], the IC50 (MIA PaCa-2 cells; Homo sapiens, MIA PaCa-2, 72 h) was 91 nM, the binding rate [1] was “A (A binding rate of 80% or more is rated “A”)” and the IC50 [2] was 58 nM.
In the case of CO[C@H]1CC[C@H](NC/C=C/C(=O)Nc2c(F)cc(C(=O)c3ccc4c(-c5cc6nc(C)n(C)c6cc5C(F)(F)F)cccn34)cc2F)CC1 [Example 2, (E)-N-(4-(8-(1,2-dimethyl-6-(trifluoromethyl)-1H-benzo[d]imidazol-5-yl)indolizine-3-carbonyl)-2,6-difluorophenyl)-4-(((1r,4r)-4-methoxycyclohexyl)amino)but-2-enamide], the IC50 (MIA PaCa-2 cells; Homo sapiens, MIA PaCa-2, 72 h) is reported as 57 nM, the binding rate [1] is reported as “A (A binding rate of 80% or more is rated “A”)” and the IC50 [2] is reported as 60 nM.
For CCc1nc2cc(-c3cccn4c(C(=O)c5cc(F)c(NC(=O)/C=C/CN[C@H]6CC[C@H](OC)CC6)c(F)c5)ccc34)c(C(F)(F)F)cc2n1C [Example 3, (E)-N-(4-(8-(2-ethyl-1-methyl-6-(trifluoromethyl)-1H-benzo[d]imidazol-5-yl)indolizine-3-carbonyl)-2,6-difluorophenyl)-4-(((1r,4r)-4-methoxycyclohexyl)amino)but-2-enamide], the IC50 (MIA PaCa-2 cells; Homo sapiens, MIA PaCa-2, 72 h) was 52 nM, the binding rate [1] was “A (A binding rate of 80% or more is rated “A”)” and the IC50 [2] was 72 nM.
COc1cc2c(cc1-c1cccn3c(C(=O)c4cc(F)c(NC(=O)/C=C/CN[C@H]5CC[C@H](OC)CC5)c(F)c4)ccc13)nc(C)n2C [Example 4, (E)-N-(2,6-difluoro-4-(8-(6-methoxy-1,2-dimethyl-1H-benzo[d]imidazol-5-yl)indolizine-3-carbonyl)phenyl)-4-(((1r,4r)-4-methoxycyclohexyl)amino)but-2-enamide] was tested, and the IC50 (MIA PaCa-2 cells; Homo sapiens, MIA PaCa-2, 72 h) was 42 nM, the binding rate [1] was “A (A binding rate of 80% or more is rated “A”)” and the IC50 [2] was 74 nM.
With COc1cc2c(cc1-c1cccn3c(C(=O)c4cc(F)c(NC(=O)/C=C/CNC(C)(C)C)c(F)c4)ccc13)nc(C)n2C [Example 5, (E)-4-(tert-butylamino)-N-(2,6-difluoro-4-(8-(6-methoxy-1,2-dimethyl-1H-benzo[d]imidazol-5-yl)indolizine-3-carbonyl)phenyl)but-2-enamide] the IC50 (MIA PaCa-2 cells; Homo sapiens, MIA PaCa-2, 72 h) was 45 nM, the binding rate [1] was “A (A binding rate of 80% or more is rated “A”)” and the IC50 [2] was 75 nM.
For CO[C@H]1CC[C@H](NC/C=C/C(=O)Nc2c(F)cc(C(=O)c3cnc4c(-c5cc6nc7n(c6cc5C(F)(F)F)CCC7)cccn34)cc2F)CC1 [Example 6, (E)-N-(2,6-difluoro-4-(8-(7-(trifluoromethyl)-2,3-dihydro-1H-benzo[d]pyrrolo[1,2-a]imidazol-6-yl)imidazo[1,2-a]pyridine-3-carbonyl)phenyl)-4-(((1r,4r)-4-methoxycyclohexyl)amino)but-2-enamide], the IC50 (MIA PaCa-2 cells; Homo sapiens, MIA PaCa-2, 72 h) was 94 nM, the binding rate [1] was “B (a binding rate of 60% or more and less than 80% is rated “B”)” and the IC50 [2] was 70 nM.
With CC(C)(C)NC/C=C/C(=O)Nc1c(F)cc(C(=O)c2cnc3c(-c4cc5nc6n(c5cc4C(F)(F)F)CCC6)cccn23)cc1F [Example 7, (E)-4-(tert-butylamino)-N-(2,6-difluoro-4-(8-(7-(trifluoromethyl)-2,3-dihydro-1H-benzo[d]pyrrolo[1,2-a]imidazol-6-yl)imidazo[1,2-a]pyridine-3-carbonyl)phenyl)but-2-enamide] the IC50 (MIA PaCa-2 cells; Homo sapiens, MIA PaCa-2, 72 h) was 160 nM, the binding rate [1] was “B (a binding rate of 60% or more and less than 80% is rated “B”)” and the IC50 [2] was 69 nM.
COCC(C)(C)NC/C=C/C(=O)Nc1c(F)cc(C(=O)c2ccc3c(-c4cc5ncn(C)c5cc4C(F)(F)F)cccn23)cc1F [Example 8] was tested, and the IC50 (MIA PaCa-2 cells; Homo sapiens, MIA PaCa-2, 72 h) was 130 nM, the binding rate [1] was “A (A binding rate of 80% or more is rated “A”)” and the IC50 [2] was 89 nM.
In the case of Cn1cnc2cc(-c3cccn4c(C(=O)c5cc(F)c(NC(=O)/C=C/CNC6CCOCC6)c(F)c5)ccc34)c(C(F)(F)F)cc21 [Example 9, (E)-N-(2,6-difluoro-4-(8-(1-methyl-6-(trifluoromethyl)-1H-benzo[d]imidazol-5-yl)indolizine-3-carbonyl)phenyl)-4-((tetrahydro-2H-pyran-4-yl)amino)but-2-enamide], the IC50 (MIA PaCa-2 cells; Homo sapiens, MIA PaCa-2, 72 h) is reported as 82 nM, the binding rate [1] is reported as “A (A binding rate of 80% or more is rated “A”)” and the IC50 [2] is reported as 27 nM.
With CCc1cc2c(ncn2C)c(Cl)c1-c1cccn2c(C(=O)c3cc(F)c(NC(=O)/C=C/CN[C@H]4CC[C@H](OC)CC4)c(F)c3)ccc12 [Example 10, (E)-N-(4-(8-(4-chloro-6-ethyl-1-methyl-1H-benzo[d]imidazol-5-yl)indolizine-3-carbonyl)-2,6-difluorophenyl)-4-(((1r,4r)-4-methoxycyclohexyl)amino)but-2-enamide] the IC50 (MIA PaCa-2 cells; Homo sapiens, MIA PaCa-2, 72 h) was 94 nM, the binding rate [1] was “A (A binding rate of 80% or more is rated “A”)” and the IC50 [2] was 69 nM.
Cn1cnc2cc(-c3cccn4c(C(=O)c5cc(F)c(NC(=O)/C=C/CNC6(C)CCOCC6)c(F)c5)ccc34)c(C(F)(F)F)cc21 [Example 11, (E)-N-(2,6-difluoro-4-(8-(1-methyl-6-(trifluoromethyl)-1H-benzo[d]imidazol-5-yl)indolizine-3-carbonyl)phenyl)-4-((4-methyltetrahydro-2H-pyran-4-yl)amino)but-2-enamide] was tested, and the IC50 (MIA PaCa-2 cells; Homo sapiens, MIA PaCa-2, 72 h) was 68 nM, the binding rate [1] was “A (A binding rate of 80% or more is rated “A”)” and the IC50 [2] was 21 nM.
CCc1cc2c(nc(C)n2C)c(Cl)c1-c1cccn2c(C(=O)c3cc(F)c(NC(=O)/C=C/CNC(C)(C)C)c(F)c3)ccc12 [Example 16, (E)-4-(tert-butylamino)-N-(4-(8-(4-chloro-6-ethyl-1,2-dimethyl-1H-benzo[d]imidazol-5-yl)indolizine-3-carbonyl)-2,6-difluorophenyl)but-2-enamide] was tested, and the IC50 (MIA PaCa-2 cells; Homo sapiens, MIA PaCa-2, 72 h) was 48 nM, the binding rate [1] was “A (A binding rate of 80% or more is rated “A”)” and the IC50 [2] was 64 nM.
CCc1cc2c(nc(C)n2C)c(Cl)c1-c1cccn2c(C(=O)c3cc(F)c(NC(=O)/C=C/CNC4CCOCC4)c(F)c3)ccc12 [Example 17, (E)-N-(4-(8(4-chloro-6-ethyl-1,2-dimethyl-1H-benzo[d]imidazol-5-yl)indolizine-3-carbonyl)-2,6-difluorophenyl)-4-((tetrahydro-2H-pyran-4-yl)amino)but-2-enamide] was tested, and the IC50 (MIA PaCa-2 cells; Homo sapiens, MIA PaCa-2, 72 h) was 32 nM, the binding rate [1] was “A (A binding rate of 80% or more is rated “A”)” and the IC50 [2] was 48 nM.
In the case of COc1cc(N2CCCC2=O)cc(Cl)c1-c1cccn2c(C(=O)c3cc(F)c(NC(=O)/C=C/CNC(C)(C)C)c(F)c3)ccc12 [Example 21, (E)-4-(tert-butylamino)-N-(4-(8-(2-chloro-6-methoxy-4-(2-oxopyrrolidin-1-yl)phenyl)indolizine-3-carbonyl)-2,6-difluorophenyl)but-2-enamide], the IC50 (MIA PaCa-2 cells; Homo sapiens, MIA PaCa-2, 72 h) is reported as 180 nM, the binding rate [1] is reported as “A (A binding rate of 80% or more is rated “A”)” and the IC50 [2] is reported as 97 nM.
